The NIST ThermoML archive (doi:10.1021/je9003959)

Assays:
[1] = 101 kPa, Liquid; for viscosity: Capillary tube (Ostwald / Ubbelohde) method; for speed of sound: Cylindrical cavity resonance method
[2] = refractive index (Na D-line) (dimensionless); conditions: 101.33 kPa, Liquid, Standard Abbe refractometry
[3] = xn = mol fraction of the nth substance listed; conditions: 101 kPa, Liquid, x2 = 0; for viscosity: Capillary tube (Ostwald / Ubbelohde) method
[4] = refractive index (Na D-line) (dimensionless); xn = mol fraction of the nth substance listed; conditions: 101 kPa, Liquid, Standard Abbe refractometry, x2 = 0

CCN1CCCC1=O [1-ethyl-2-pyrrolidinone]
Conditions | mass density, [1] [kg/m3] | refractive index, [2] | speed of sound, [1] [m/s] | viscosity, [1] [mPa·s]
293 K | 1000.55 | 1.46461 | 1511.6 | 2.133
298 K | 996.24 | 1.46192 | 1492.5 | 2.022
303 K | 991.93 | 1.45791 | 1473.3 | 1.832
313 K | 983.26 | 1.45415 | 1435.3 | 1.621
323 K | 974.56 | 1.45147 | 1398 | 1.358

O [water]
Conditions | mass density, [1] [kg/m3] | refractive index, [2] | speed of sound, [1] [m/s] | viscosity, [1] [mPa·s]
293 K | 998.26 | 1.33298 | – | 1.009
298 K | – | 1.33251 | – | 0.9029
303 K | – | 1.33191 | – | 0.8133
313 K | 992.26 | 1.33061 | 1529.1 | 0.6693
323 K | – | 1.32902 | – | 0.5611

O [water] + CCN1CCCC1=O
Conditions | mass density, [3] [kg/m3] | refractive index, [4] | viscosity, [3] [mPa·s]
293 K | 998.26 | 1.33298 | 1.009
298 K | – | 1.33251 | 0.9029
303 K | – | 1.33191 | 0.8133
313 K | 992.26 | 1.33061 | 0.6693
323 K | – | 1.32902 | 0.5611

Conditions | speed of sound [m/s]
[3], 313 K, Cylindrical cavity resonance method | 1529.1
